# Results from patent publication US5001118A, “Method for preventing senescence and increasing bone mass” (priority 1986, dated 1991).
# Tests used:
# rats = experiment: Lifelong administration to rats (general statement on bone); type: in vivo, rat
# Text: One aspect of the present invention has been perfected based on the above findings. […] These findings are literally epochal in the light of the fact that the conventional pharmaceutical compositions for adjusting bone metabolism is found to be only capable of restoring bones having abnormality due to morbidity near to normality.
# osteoporosis = experiment: Activity on bones found by the inventors (general statement)
# [1] = lifelong administration to rats
smiles,measurement,setting,value
"C=C1CC[C@H](O)C/C1=C/C=C1\CCC[C@]2(C)[C@@H]([C@H](C)CCC(O)C(C)(C)O)CC[C@@H]12 (stereo partly shown) [24,25-(OH)2 -D3, 24,25-dihydroxy cholecalciferol]",bone quality,rats; [1],without affecting the bone quality
same,bone volume,rats; [1],increasing bone volume
same,bone strength vs non-administered normal mammals,"rats; normal mammal, extension of the lifelong rat experiment",clearly surpassing the average bone strength of non-administered normal mammals
same,activity on osteoporosis,osteoporosis,activity of preventing osteoporosis
